In a melting point compilation (Tetko et al.; mined from patent text by program, amines drawn as free bases though some values may be those of a salt):

| melting point [°C] | SMILES |
| --- | --- |
| > 250 | Cc1nc(N)c2nc(CO)n(NC3CCOCC3)c2c1C |
| 167 to 168 | O=C(O)c1cccc(-c2ccc3c(c2)N(Cc2ccc(Cl)c(Cl)c2)CC3)c1 |
| 175 to 178 | Cc1cc(-c2ccc(N(c3ccccc3)c3ccccc3)c(C)c2)ccc1N(c1ccccc1)c1ccccc1 |
| 244 | Nc1ccc(Nc2c(NCc3ccccc3)cc(C(=O)O)cc2S(N)(=O)=O)cc1 |
| 84 to 86 | CCCC1CC(=O)c2c(NC(=O)C(=O)OCC)ccc(C)c21 (centres undefined) |
| 55 to 60 | Clc1ccc(CCNc2ccc3ccc(NCCc4ccc(Cl)cc4)nc3c2)cc1 |
| 152 to 153 | Oc1nn(-c2ccccc2)cc1CCc1cscn1 |
| 135 | Cc1ccc(S(=O)(=O)Oc2ccccc2-c2cc3c(C(N)=O)cccc3[nH]2)cc1 |
| 59 to 61 | Fc1ccc(CCCCN2CCN(c3ncc(F)cn3)CC2)cc1 |
| 94 | CC#CCOc1cc(Oc2cccc(C(C)=O)c2)ncn1 |
| 249 to 251 | COc1c(C(=O)NN=Cc2ccc(Cl)cc2)[nH]c2ccccc12 |
| 124 | CC(C)(C)c1cc(C=O)cc(I)c1O |
| 203 to 204 | Fc1ccc(-c2n[nH]cc2-c2ccnc(NC3CC3)n2)cc1 |
| 136 | N#CCCNNC(=O)c1ccc(OCc2ccccc2)cc1 |
| 95 to 97 | COC(=O)N=P(c1ccccc1)(c1ccccc1)c1ccccc1CN(C)C |
| 181 to 182 | CCc1cccc(C)c1NC(=O)C(C)Br (centres undefined) |
| 118 to 119 | O=C1CCN(Cc2ccc([N+](=O)[O-])cc2)CC1C(c1ccc(F)cc1)c1ccc(F)cc1 (centres undefined) |
| 129 to 131 | CC(C)(C)c1nc(C(=O)c2ccccc2)nc(C(C)(C)C)c1O |
| 204 to 207 | CC(=O)Oc1ccc(-c2ccc(O)cc2)cc1 |
| 61 to 63 | COCCc1nc2c(N)nc3ccccc3c2n1CCCCNC(=O)c1nccc2ccccc12 |
| 168 to 170 | CCc1cc2c(s1)SCCc1cc(=O)n(C)nc1-2 |
| 149 to 150 | COC(=O)C1C(=O)N(Cc2ccc(Br)cc2F)C(=O)c2ccccc21 (centres undefined) |
| 152 to 154 | CC(=O)Nc1cnc(-c2cc(Cl)ccc2Cl)c(N)n1 |
| 122 to 124 | CC(C)NC(=O)C1CC(=O)N(Cc2ccccc2)C1 (centres undefined) |

| melting point [°C] | SMILES |
| --- | --- |
| 235 to 236 | N#Cc1cnn2c1N(C(=O)CCl)CC=C2c1cc(Cl)ccc1Cl |
| 179 to 181 | CCCCc1nc2c(c(C)c(C)n3nnnc23)n1CC(C)(C)NC(=O)OC(C)(C)C |
| 129 to 130 | CC(C)c1cccc(C(C)C)c1NC(=O)N(Cc1ccc(N(C)C)cc1)c1ccc(C(F)(F)F)cc1 |
| 117 to 119 | CCc1ccc(-c2cccc(-c3ccnc4c(C(=O)c5cccs5)cnn34)c2)cc1 |
| 140 to 147 | COC1(c2ccc(N(C)C)cc2)OC(=O)c2cc(N(C)C)ccc21 (centres undefined) |
| 111 to 115 | O=[N+]([O-])c1ccc(Oc2ccc(C(F)(F)F)cc2Cl)cc1C=NO |
| 128 to 136 | COc1ccc2c(c1)C(NC(=O)C(F)(F)F)CC2 (centres undefined) |
| 210 to 211 | COc1ccc(-c2ccc(C(=O)Nc3ccc4nc(CN5C(C)(C)CCCC5(C)C)ccc4c3)cc2)cc1 |
| 164 to 166 | COCC1CN(c2ccc(C3CCN(C(=O)c4ccc(C(F)(F)F)cc4)CC3)cc2)C(=O)O1 (racemic) |
| 83 to 84 | CC(C)CC(NC(=O)OC(C)(C)C)C(O)c1ccccn1 (centres undefined) |
| 132 to 133 | COC(=O)c1cc2cc(O)ccc2o1 |
| 132 to 133 | CCOP(=O)(/C=C/c1cn(-c2ccccc2)nc1NC)OCC |
| 140 to 143 | CCOC(=O)N1CCC(C#N)(NC(=O)C(CC2CCCCC2)NC(=O)N2CCOCC2)CC1 (centres undefined) |
| 143 to 144 | CS(=O)(=O)Nc1cc2c(cc1Oc1ccccc1)C(=O)CCO2 |
| 232 to 233 | CC1(C)Oc2ccc(C#N)cc2C(Oc2ccc(O)nn2)C1O (centres undefined) |
| 169 to 171 | Cn1cc(-c2ccc(Cl)c(Cl)c2)c(=O)c(-c2ccccc2Cl)c1 |
| 112 to 115 | CC(C)NNC(=O)c1ccc(Cl)c(Cl)c1 |
| 286 to 288 | Cc1cc(C)n2nc(S(=O)(=O)Nc3c(Cl)ccc(C)c3Cl)nc2n1 |
| 149 to 150 | COc1ccc(C2(C#N)CCC(CC(=O)O)CC2)c2c1OCCO2 (centres undefined) |
| 116 to 117 | O=C(C[C@H](C(=O)N[C@H](CO)Cc1ccccc1)n1cc(-c2ccc(-c3ccccc3)cc2)cn1)OCc1ccccc1 |
| 128 to 131 | CNCc1cc2cc(Nc3nc(N)n(C(=O)c4cccc(C)c4)n3)ccc2o1 |
| 324 to 325 | O=c1[nH]c2ccc(-c3cccc([N+](=O)[O-])c3)cc2[nH]1 |
| 112 to 113 | COC(=O)c1ccc(N)c(C=C(Br)Br)c1 |
| 141 to 143 | CC(C)(C)C1=CCC(C(=O)O)CC1 (centres undefined) |

| melting point [°C] | SMILES |
| --- | --- |
| 136 to 138 | Cc1c(Cl)cnc(N)c1F |
| 85 to 87 | CCN1CC(COS(=O)(=O)c2ccc(C)cc2)Oc2ccccc21 (centres undefined) |
| 152 to 157 | CN(C(=O)c1cc(C(F)(F)F)cc(C(F)(F)F)c1)C(CCCC(=O)O)Cc1c[nH]c2ccccc12 (centres undefined) |
| 78 to 83 | O=S(=O)(Oc1ccc(F)cc1)c1ccc(Oc2ccc(F)cc2)cc1 |
| 69 to 71 | CCCCc1sc(-c2ccccc2)nc1O |
| 108 | O=S(=O)(c1ccc(Cl)cc1)c1ccc(Cl)s1 |
| 176 to 180 | O=C(OC1CCCCC1)C(c1ccccc1)n1cnc2[nH]ncc2c1=O (centres undefined) |
| 122 to 123 | COC(=O)NC=Cc1ccc(OCC2CO2)c(OC)c1 (centres undefined) |
| 208 to 211 | Cc1nnnn1CC(C)n1nnc2cc3c(=O)n(C4CC4)nnc3cc2c1=O (centres undefined) |
| 113 to 116 | COC(=O)c1sccc1S(=O)(=O)Nc1onc(C)c1C |
| 245 to 248 | CCc1nnc2c(Nc3ccc(Cl)cc3OC)nc3ccccc3n12 |
| 99 | CC(=O)C=Cc1c(C)c(C)c(C)c2ccoc12 |
| 118 | FC(F)(F)c1cccc(NC2CCN(c3ccc(Cl)nn3)CC2)c1 |
| 198 | COCCc1nc2c(N)nc3ccccc3c2n1CCCNC(=O)c1cc2ccccc2cn1 |
| 155 to 157 | CCOC1Nc2c(ccc(C)c2O)C(=O)N2CCCC12 (centres undefined) |
| 237 to 238 | COc1cc(C=CC(=O)Nc2cnc3ccccc3c2-c2ccccc2Cl)cc(OC)c1OC(C)=O |
| 64 to 69 | Nc1ccc(-n2nnn(CCCC3CCCCC3)c2=O)cc1 |
| 148 to 149 | CC(C)(C)OC(=O)N[C@@H]1C(=O)N(O)C1(C)C |
| 98 to 99 | CO/N=C(/C(N)=O)c1ccccc1Oc1ccccc1 |
| 226 to 228 | O=C(NC1CC1)c1ccc(CCN2CC=C(c3c[nH]c(-c4ccc(F)cc4)c3-c3ccncc3)CC2)cc1 |
| 181 to 182 | O=C(O)c1cccc(Br)c1Nc1ccccc1Br |
| 199 to 200 | CC1Cc2cccc3c4oc(=O)c(Sc5cccc(F)c5)c(O)c4c(=O)n1c23 (centres undefined) |

| SMILES | melting point [°C] |
| --- | --- |
| COc1ccccc1[N+]1([O-])CCNCC1 | 157 to 160 |
| O=C(O)c1cncn1C(c1ccccc1)C1CCCCC1 (centres undefined) | 250 |
| CC(C)(C)c1ccc(C(=O)C(Cl)(Cl)Cl)cc1 | 59 to 62 |
| CN1Cc2c(C#Cc3ccccc3Cl)ncn2-c2ccc(F)cc2C1=O | 259 to 261 |
